Assay results taken from patent US10597388B2, “Pyridazinone herbicides” (FMC CORPORATION, priority 2014, dated 2020).

Tests used:
Assay in all cases: Test E greenhouse herbicide test, pre- and postemergence
Format in all cases: in vivo
Conditions in all cases: Postemergence
[1] = system: Italian ryegrass (Lolium multiflorum)
Description: (§1) Seeds of plant species selected from corn (Zea mays), soybean (Glycine max), velvetleaf (Abutilon theophrasti), lambsquarters (Chenopodium album), wild poinsettia (Euphorbia heterophylla), pigweed, palmer (palmer pigweed, Amaranthus palmeri), waterhemp (common waterhemp, Amaranthus rudis), surinam grass (Brachiaria decumbens), crabgrass, large (large crabgrass, Digitaria sanguinalis), crabgrass, Brazilian (Brazilian crabgrass, Digitaria horizontalis), panicum, fall (fall panicum, Panicum dichotomiflorum), foxtail, giant (giant foxtail, Setaria faberii), foxtail, green (green foxtail, Setaria viridis), goosegrass (Eleusine indica), johnsongrass (Sorghum halepense), ragweed (common ragweed, Ambrosia elatior), barnyardgrass (Echinochloa crus-galli), sandbur (southem sandbur, Cenchrus echinatus), arrowleaf sida (Sida rhombifolia), Italian ryegrass (Lolium multiflorum), dayflower (Virginia (VA) dayflower, Commelina virginica), field bindweed (Convolvulus arvensis), momingglory (Ipomoea coccinea), nightshade (eastern black nightshade, Solanum ptycanthum), kochia (Kochia scoparia), nutsedge, yellow (yellow nutsedge, Cyperus esculentus), horseweed (Conyza canadensis), and beggarticks (hairy beggarticks, Bidens pilosa), were planted into a silt loam soil and treated preemergence with test chemicals formulated in a non-phytotoxic solvent mixture which included a surfactant.
(§2) At the same time, plants from these crop and weed species and also waterhemp_RES1, (ALS & Triazine resistant common waterhemp, Amaranthus rudis), and waterhemp_RES2, (ALS & HPPD resistant common waterhemp, Amaranthus rudis) were planted in pots containing Redi-Earth® planting medium (Scotts Company, 14111 Scottslawn Road, Marysville, Ohio 43041) comprising spaghnum peat moss, vermiculite, wetting agent and starter nutrients were treated with postemergence applications of test chemicals formulated in the same manner. Plants ranged in height from 2 to 18 cm for postemergence treatments (1- to 4-leaf stage). Treated plants and controls were maintained in a greenhouse for 14 to 21 d, after which time all species were compared to controls and visually evaluated. Plant response ratings, summarized in Table E, are based on a scale of 0 to 100 where 0 is no effect and 100 is complete control. A dash (-) response means no test result.

[2] = system: barnyardgrass (Echinochloa crus-galli)
Description: as §1, §2

[3] = system: beggarticks (hairy beggarticks, Bidens pilosa)
Description: as §1, §2

[4] = system: crabgrass, Brazilian (Brazilian crabgrass, Digitaria horizontalis)
Description: as §1, §2

[5] = system: dayflower (Virginia (VA) dayflower, Commelina virginica)
Description: as §1, §2

kochia (Kochia scoparia) = system: kochia (Kochia scoparia)
Description: as §1, §2

[6] = system: panicum, fall (fall panicum, Panicum dichotomiflorum)
Description: as §1, §2

[7] = system: ragweed (common ragweed, Ambrosia elatior)
Description: as §1, §2

[8] = system: sandbur (southem sandbur, Cenchrus echinatus)
Description: as §1, §2

[9] = system: waterhemp (common waterhemp, Amaranthus rudis)
Description: as §1, §2

[10] = 62 g ai/ha, scale 0 to 100 (0 no effect, 100 complete control)
[11] = 125 g ai/ha, scale 0 to 100 (0 no effect, 100 complete control)
[12] = 250 g ai/ha, scale 0 to 100 (0 no effect, 100 complete control)
[13] = 31 g ai/ha, visual, scale 0 no effect to 100 complete control
[14] = 16 g ai/ha, visual, scale 0 no effect to 100 complete control

| Compound | Plant response rating, Ryegrass, Italian [1, 10] | Plant response rating, Ryegrass, Italian [1, 11] | Plant response rating, Ryegrass, Italian [1, 13] | Plant response rating, Barnyardgrass [2, 10] | Plant response rating, Barnyardgrass [2, 11] | Plant response rating, Barnyardgrass [2, 13] | Plant response rating, Beggarticks [3, 10] | Plant response rating, Beggarticks [3, 11] | Plant response rating, Beggarticks [3, 13] | Plant response rating, Crabgrass, Brazil [4, 10] | Plant response rating, Crabgrass, Brazil [4, 11] | Plant response rating, Crabgrass, Brazil [4, 13] | Plant response rating, Dayflower, VA [5, 10] | Plant response rating, Dayflower, VA [5, 11] | Plant response rating, Dayflower, VA [5, 13] | Plant response rating, Kochia (kochia (Kochia scoparia); [10]) | Plant response rating, Kochia (kochia (Kochia scoparia); [11]) | Plant response rating, Kochia (kochia (Kochia scoparia); [13]) | Plant response rating, Panicum, Fall [6, 10] | Plant response rating, Panicum, Fall [6, 11] | other results |
| --- | --- | --- | --- | --- | --- | --- | --- | --- | --- | --- | --- | --- | --- | --- | --- | --- | --- | --- | --- | --- | --- |
| CCC(=O)Oc1c(C)nn(C)c(=O)c1-c1c(C)sc2ccc(C)cc12 [Compound 42] | 70 | 85 | 50 | 30 | 30 | 20 | 95 | 100 | 95 | 35 | 40 | 20 | 50 | 60 | 30 | 85 | 95 | 75 | 50 | 80 | Plant response rating, Ryegrass, Italian [1, 12]: 90; Plant response rating, Barnyardgrass [2, 12]: 35; Plant response rating, Beggarticks [3, 12]: 100; Plant response rating, Crabgrass, Brazil [4, 12]: 50; Plant response rating, Dayflower, VA [5, 12]: 70; Plant response rating, Kochia (kochia (Kochia scoparia); [12]): 98; Plant response rating, Panicum, Fall [6, 12]: 95; Plant response rating, Panicum, Fall [6, 13]: 60; Plant response rating, Ragweed [7, 10]: 85; Plant response rating, Ragweed [7, 11]: 95; Plant response rating, Ragweed [7, 12]: 90; Plant response rating, Ragweed [7, 13]: 90; Plant response rating, Sandbur [8, 10]: 50; Plant response rating, Sandbur [8, 11]: 60; Plant response rating, Sandbur [8, 12]: 60; Plant response rating, Sandbur [8, 13]: 35; Plant response rating, Waterhemp [9, 10]: 80; Plant response rating, Waterhemp [9, 11]: 100; Plant response rating, Waterhemp [9, 12]: 90; Plant response rating, Waterhemp [9, 13]: 75 |
| CC(=O)Oc1c(C)nn(C)c(=O)c1-c1ccc(F)c2ccccc12 [Compound 90] | 85 | 85 | 80 | 40 | 50 | 30 | 98 | 100 | 90 | 50 | 70 | 55 | 80 | 90 | 60 | 95 | 100 | 90 | 60 | 70 | Plant response rating, Ryegrass, Italian [1, 14]: 75; Plant response rating, Barnyardgrass [2, 14]: 30; Plant response rating, Beggarticks [3, 14]: 85; Plant response rating, Crabgrass, Brazil [4, 14]: 50; Plant response rating, Dayflower, VA [5, 14]: 40; Plant response rating, Kochia (kochia (Kochia scoparia); [14]): 90; Plant response rating, Panicum, Fall [6, 14]: 40; Plant response rating, Panicum, Fall [6, 13]: 60; Plant response rating, Ragweed [7, 10]: 80; Plant response rating, Ragweed [7, 11]: 90; Plant response rating, Ragweed [7, 14]: 50; Plant response rating, Ragweed [7, 13]: 75; Plant response rating, Sandbur [8, 11]: 50; Plant response rating, Sandbur [8, 14]: 40; Plant response rating, Sandbur [8, 13]: 40; Plant response rating, Waterhemp [9, 11]: 90; Plant response rating, Waterhemp [9, 14]: 50; Plant response rating, Waterhemp [9, 13]: 70 |
| COc1nn(C)c(=O)c(-c2c(C)sc3ccc(Cl)cc23)c1O [Compound 100] | 60 | 70 | 50 | 40 | 30 | 30 | 80 | 90 | 75 | 50 | 40 | 25 | 0 | 0 | 0 | 80 | 80 | 60 | 50 | 70 | Plant response rating, Ryegrass, Italian [1, 12]: 85; Plant response rating, Barnyardgrass [2, 12]: 50; Plant response rating, Beggarticks [3, 12]: 100; Plant response rating, Crabgrass, Brazil [4, 12]: 50; Plant response rating, Dayflower, VA [5, 12]: 0; Plant response rating, Kochia (kochia (Kochia scoparia); [12]): 100; Plant response rating, Panicum, Fall [6, 12]: 80; Plant response rating, Panicum, Fall [6, 13]: 30; Plant response rating, Ragweed [7, 10]: 85; Plant response rating, Ragweed [7, 11]: 90; Plant response rating, Ragweed [7, 12]: 90; Plant response rating, Ragweed [7, 13]: 75; Plant response rating, Sandbur [8, 11]: 40; Plant response rating, Sandbur [8, 12]: 50; Plant response rating, Sandbur [8, 13]: 20; Plant response rating, Waterhemp [9, 12]: 90; Plant response rating, Waterhemp [9, 13]: 80 |
| CSCC(=O)Oc1c(C)nn(C)c(=O)c1-c1cccc2ccccc12 [Compound 171] | 75 | 85 | 65 | 45 | 50 | 40 | 95 | 100 | 80 | 50 | 50 | 40 | 50 | 70 | 40 | 95 | 100 | 90 | 50 | 60 | Plant response rating, Ryegrass, Italian [1, 12]: 90; Plant response rating, Barnyardgrass [2, 12]: 50; Plant response rating, Beggarticks [3, 12]: 100; Plant response rating, Crabgrass, Brazil [4, 12]: 60; Plant response rating, Dayflower, VA [5, 12]: 90; Plant response rating, Kochia (kochia (Kochia scoparia); [12]): 100; Plant response rating, Panicum, Fall [6, 12]: 75; Plant response rating, Panicum, Fall [6, 13]: 40; Plant response rating, Ragweed [7, 10]: 75; Plant response rating, Ragweed [7, 11]: 90; Plant response rating, Ragweed [7, 12]: 98; Plant response rating, Ragweed [7, 13]: 60; Plant response rating, Sandbur [8, 11]: 50; Plant response rating, Sandbur [8, 12]: 60; Plant response rating, Sandbur [8, 13]: 30; Plant response rating, Waterhemp [9, 11]: 85; Plant response rating, Waterhemp [9, 12]: 90; Plant response rating, Waterhemp [9, 13]: 80 |
